Experimental data as given in patent US20180291043A1, “BENZOCYCLOOCTENE-BASED AND INDENE-BASED ANTICANCER AGENTS” (BAYLOR UNIVERSITY, priority 2016, published 2018).
Entries after “also recorded” stand apart in the source; their conditions may differ. Where two headings read alike, the source gives them in different places.

Experiments:
[1] = system: MCF7-luc-GFP-mCherry breast tumor; test: Bioluminescence imaging (BLI) of vascular disruption in tumor-bearing mice; format: in vivo, SCID mice; conditions: for reduction in bioluminescence (decrease compared to baseline or saline control): single dose 120 mg/kg ip, 4 h after compound injection, p<0.05
Description: Human breast cancer cells, MCF7-luc-GFP-mCherry (ATCC), were transfected sequentially with a lentivirus containing firefly luciferase reporter, GFP and mCherry reporter genes, as described in Liu et al., 2012. Highly expressing stable clones were isolated. Induction of tumors was carried out by injecting 10^6 cells mixed with 50% Matrigel™ (BD Biosciences, San Jose, Calif.) into the right upper ventral mammary fat pads of female SCID-NOD mice (UTSW breeding colony). Tumors were allowed to grow to a size of 10-12 mm in diameter, determined by calipers, before selection for BLI. All animal procedures were approved by the University of Texas Southwestern Medical Center Institutional Animal Care and Use Committee.
Bioluminescence imaging was carried out as described in Liu et al., 2012. Briefly, anesthetized, tumor bearing mice (O2, 2% isoflurane, Henry Schein Inc., Melville, N.Y.) were injected subcutaneously in the fore-back neck region with 80 μL of a solution of luciferase substrate, D-luciferin (sodium salt, 120 mg/kg, in saline, Gold Biotechnology, St. Louis, Mo.). Mice were maintained under anesthesia (2% isoflurane in oxygen, 1 dm^3/min), while baseline bioluminescence imaging was performed using a Caliper Xenogen IVIS® Spectrum (Perkin-Elmer, Alameda, Calif.). A series of BLI images was collected over 35 min using the following settings: auto exposure time, f-stop=2, Field of view=D, binning=4 (medium). Light intensity-time curves obtained from these images were analyzed using Living Image® software and light emission compared based on area under the light emission curve. Mice were injected intraperitoneally with either 120 μL of saline (vehicle), CA4P (provided by Mateon Therapeutics, Inc.; 120 mg/kg in saline as used in Mason et al., 2011 or analogue 24 (120 mg/kg) in saline immediately after baseline BLI. Bioluminescence imaging was repeated, with new luciferin injections 4, 24, and 48 h later.
Bioluminescence imaging (BLI) is a highly valuable modality with diverse applications in a wide range of biological models and systems. BLI is a particularly useful tool for assessing and quantifying in vivo blood flow reduction following treatment with a VDA. In the current study MCF7 human breast cancer cells, which had been previously transfected stably to express the enzyme luciferase, as well as two fluorescent proteins, as designated by MCF7-luc-GFP-mCherry were implanted in SCID mice. Since the luciferase substrate luciferin can be delivered to the tumor via the blood stream, damage to the vessels by a VDA can be quantified by measurement of reduced bioluminescence upon injection of luciferin. […]

DU-145 [2] = test: SRB assay, growth inhibition, DU-145; format: cell-based, human; conditions: 48 h treatment, average of n ≥ 3
Description: (§1) Inhibition of growth of human cancer cells was assessed using the sulforhodamine B assay (SRB), as described in Monks et al., 1991. Cancer cell lines (DU-145, SK-OV-3, and NCI-H460) were plated at 7500-8000 cells/well into 96-well plates using DMEM supplemented with 5% fetal bovine serum/1% gentamicin sulfate and incubated for 24 h at 37° C. in a humidified incubator. Compound serial dilutions were then added. After 48 h treatment, the cells were fixed with trichloroacetic acid (10% final concentration), washed, dried, stained with sulforhodamine B dye (Acid red 52), washed to remove excess dye, and dried. SRB dye was solubilized, and absorbances were measured at wavelength 540 nm and normalized to values at wavelength 630 nm using an automated Biotek plate reader.

[3] = system: MCF7-luc-GFP-mCherry breast tumor; test: Histological assessment of tumor necrosis (H&E); format: in vivo, SCID mice; conditions: 120 mg/kg, 48 h post treatment
Description: Following the 48 h BLI data acquisition, the tumors were excised, bisected and fixed in 4% paraformaldehyde solution. Tumor tissue was processed for paraffin embedding, sectioned and stained by routine methods. H&E staining was performed on one cross section from each tumor. Whole mount high resolution microscopy was obtained using a Zeiss Axioscan Z1 digital slide scanner. […] Thus, analogue 24 may be a therapeutically useful VDA.

[4] = system: purified bovine brain tubulin; conditions: Data from Pettit et al., 2000; read-out: Inhibition of tubulin polymerization IC50 (μM) ± SD; cited from earlier work
SK-OV-3 [5] = test: SRB assay, growth inhibition, SK-OV-3; format: cell-based, human; conditions: 48 h treatment, average of n ≥ 3
Description: as §1

NCI-H460 [6] = test: SRB assay, growth inhibition, NCI-H460; format: cell-based, human; conditions: 48 h treatment, average of n ≥ 3
Description: as §1

SK-OV-3 [7] = conditions: Data from Devkota et. al., 2016; read-out: GI50 (μM) SRB assay SK-OV-3; cited from earlier work
tubulin = test: Colchicine binding assay (inhibition of [3H]colchicine binding to tubulin)
Description: Inhibition of [^3H]colchicine binding to tubulin was measured using reaction mixtures (100 μL each) containing 1.0 μM tubulin, 5.0 μM [^3H]colchicine (from Perkin-Elmer), 5% (v/v) dimethyl sulfoxide, […], and components that stabilize the colchicine binding activity of tubulin (Hamel et al., 1981) (1.0 M monosodium glutamate [adjusted to pH 6.6 with HCl in a 2.0 M stock solution], 0.5 mg/mL bovine serum albumin, 0.1 M glucose-1-phosphate, 1.0 mM MgCl2, and 1.0 mM GTP). […] Reactions were stopped with 2.0 mL of ice-cold water, and the reaction mixtures were placed on ice. Each sample was poured onto a stack of two DEAE-cellulose filters (from Whatman), followed by 6 mL of ice-cold water. The samples were aspirated under reduced vacuum. The filters were washed three times with 2 mL water and placed into vials containing 5 mL of Biosafe II scintillation cocktail. Samples were counted 18 h later in a Beckman scintillation counter. Samples with inhibitors were compared to samples with no inhibitor, and percent inhibition was determined. All samples were corrected for the amount of radiolabel bound to the filters in the absence of tubulin.

NCI-H460 [8] = conditions: Data from Devkota et. al., 2016; read-out: GI50 (μM) SRB assay NCI-H460; cited from earlier work
DU-145 [9] = conditions: Data from Devkota et. al., 2016; read-out: GI50 (μM) SRB assay DU-145; cited from earlier work
[10] = system: purified bovine brain tubulin; test: Inhibition of tubulin polymerization (tubulin assembly); format: biochemical; conditions: 10 μM tubulin, extent of assembly after 20 min at 30° C.; read-out: Inhibition of tubulin polymerization IC50 (μM) ± SD
Description: Inhibition of Tubulin Polymerization
Tubulin assembly experiments were performed in 0.25 mL reaction mixtures (final volume) (Hamel, 2003). The mixtures contained 1 mg/mL (10 μM) purified bovine brain tubulin, 0.8 M monosodium glutamate (pH 6.6), 4% (v/v) dimethyl sulfoxide, 0.4 mM GTP, and different compound concentrations. All reaction components except GTP were preincubated for 15 min at 30° C. in 0.24 mL. The mixtures were cooled to 0° C., and 10 μL of 10 mM GTP were added. Reaction mixtures were transferred to cuvettes held at 0° C. in Beckman DU-7400 and DU-7500 spectrophotometers equipped with electronic temperature controllers. The temperature was jumped to 30° C., taking about 30 s, and polymerization was followed at 350 nm for 20 min.

[11] = system: human cancer cell lines (DU-145, SK-OV-3, NCI-H460); test: SRB cytotoxicity, statements over the three human cancer cell lines; format: cell-based; conditions: all three human cancer cell lines
Description: as §1

[12] = Limited dose escalation study (tolerability); format: in vivo, non-tumor bearing SCID mice; conditions: dose of 120 mg/kg; dose escalation 60-150 mg/kg; MTD not yet determined
[13] = inhibitor at 5 μM, 1.0 μM tubulin, 5.0 μM [3H]colchicine

Structure (SMILES)	GI50 (DU-145 [2]; Homo sapiens, DU-145)	% Inhibition of colchicine binding ± SD (tubulin; [13])	GI50 (SK-OV-3 [5]; Homo sapiens, SK-OV-3)	IC50 [10]	GI50 (NCI-H460 [6]; Homo sapiens, NCI-H460)	other results
COc1ccc(/C=C\c2cc(OC)c(OC)c(OC)c2)cc1OP(=O)(O)O [CA4P, Combretastatin A-4P, reference compound]						reduction in bioluminescence (decrease compared to baseline or saline control) [1]: approximately 80%; GI50 (DU-145 [2]): 3.36 nM; tumor necrosis (H&E staining) compared with saline control [3]: much more extensive necrosis; IC50 [4]: > 20 µM; GI50 (SK-OV-3 [5]): 1.9 nM; GI50 (NCI-H460 [6]): 2.82 nM
COc1ccc(/C=C\c2cc(OC)c(OC)c(OC)c2)cc1O [CA4]						GI50 (SK-OV-3 [7]): 0.00506 µM; % Inhibition of colchicine binding ± SD (tubulin; inhibitor at 1 μM): […]; GI50 (NCI-H460 [8]): 0.005 µM; IC50 [4]: […]; GI50 (DU-145 [9]): 0.00602 µM
COc1cc(C2=CCCCCc3c2ccc(OC)c3OC)cc(OC)c1OC [Compound 20, 1,2-Dimethoxy-5-(3′,4′,5′-trimethoxyphenyl)-benzocyclooct-5-ene]	448 nM	31 ± 0.6 (5 μM) %	512 nM	4.5 ± 0.5 µM	395 nM	
COc1ccc2c(c1)CCCCC=C2c1cc(OC)c(OC)c(OC)c1 [Compound 21, 2-Methoxy-5-(3′,4′,5′-trimethoxyphenyl)-benzocyclooct-5-ene]	570 nM	29 ± 5 (5 μM) %	400 nM	3 ± 0.1 µM	431 nM	
COc1ccc2c(c1O)CCCCC=C2c1cc(OC)c(OC)c(OC)c1 [Compound 23, 1-Hydroxy-2-methoxy-5-(3′,4′,5′-trimethoxyphenyl)-benzocyclooct-5-ene]	105 nM	78%	81.1 nM	1.2 µM	107 nM	GI50 values / cytotoxicity range in words [11]: submicromolar
COc1cc(C2=CCCCCc3c2ccc(OC)c3OP(=O)([O-])[O-])cc(OC)c1OC.[Na+].[Na+] [Compound 24, Sodium 2-methoxy-5-(3′,4′,5′-trimethoxyphenyl)-benzocyclooct-5-en-1-yl phosphate]	41 nM		36.6 nM	> 20 µM	26 nM	GI50 values / cytotoxicity range in words [11]: submicromolar; tolerability of dose [12]: tolerated; bioluminescence intensity at 24 and 48 h ([1]; 120 mg/kg ip, 24 and 48 h post administration, phosphate): the effect continued at both 24 and 48 h; also recorded: remained significantly below baseline values; vascular shutdown / reduction of blood flow as evidenced by BLI ([1]; 120 mg/kg, 4 h post administration, phosphate): significant vascular shutdown; also recorded: significant in vivo reduction of blood flow; reduction in bioluminescence (decrease compared to baseline or saline control) [1]: approximately 80%; tumor necrosis (H&E staining) compared with saline control [3]: much more extensive necrosis
COc1cc(C2=CCc3c2ccc(OC)c3OC)cc(OC)c1OC [Compound 28, 6,7-Dimethoxy-3-(3′,4′,5′-trimethoxyphenyl)-1H-indene]	34600 nM		9460 nM	> 20 µM	42200 nM	
COc1ccc2c(c1)CC=C2c1cc(OC)c(OC)c(OC)c1 [Compound 29, 6-Methoxy-3-(3′,4′,5′-trimethoxyphenyl)-1H-indene]	4660 nM		6150 nM	> 20 µM	4020 nM	
COc1ccc2c(c1O)CC=C2c1cc(OC)c(OC)c(OC)c1 [Compound 31, 6-Methoxy-3-(3′,4′,5′-trimethoxyphenyl)-1H-inden-7-ol]	362 nM	17 ± 5 (5 μM) %	704 nM	11 µM	388 nM	
COc1cc(C2=CCc3c2ccc(OC)c3OP(=O)(O)O)cc(OC)c1OC [Compound 32, Sodium 6-methoxy-3-(3′,4′,5′-trimethoxyphenyl)-1H-inden-7-yl phosphate]	3340 nM		334 nM	> 20 µM	1500 nM	
COc1ccc2c(c1O)CCCC=C2c1cc(OC)c(OC)c(OC)c1 [KGP18, reference compound]				1.4 µM		GI50 values / cytotoxicity range in words [11]: subnanomolar; GI50 values / cytotoxicity range in words ([11]; listed as KPG18): sub-nM; GI50 (DU-145 [2]): 0.0249 nM; GI50 (SK-OV-3 [5]): 0.0543 nM; GI50 (NCI-H460 [6]): 0.0418 nM
